Reference: patent US20250230193A1, “CYCLIC COMPOUND HAVING SELECTIVE KRAS INHIBITORY EFFECT ON HRAS AND NRAS” (CHUGAI SEIYAKU KABUSHIKI KAISHA, priority 2022, published 2025)

Legend:
[1] = target: GDP-bound NRAS wild-type protein (Homo sapiens, UniProt P01111); experiment: Binding to NRAS by surface plasmon resonance (SPR), Single Cycle Kinetics; settings: SPR; for NRAS/KRAS (ratio of KD value for NRAS to KD value for KRAS) / NRAS/KRAS (ratio of KD value with respect to NRAS to KD value with respect to KRAS): GDP-bound NRAS wild-type vs GDP-bound KRAS wild-type
Sequence of GDP-bound NRAS wild-type protein (P01111 whole entry): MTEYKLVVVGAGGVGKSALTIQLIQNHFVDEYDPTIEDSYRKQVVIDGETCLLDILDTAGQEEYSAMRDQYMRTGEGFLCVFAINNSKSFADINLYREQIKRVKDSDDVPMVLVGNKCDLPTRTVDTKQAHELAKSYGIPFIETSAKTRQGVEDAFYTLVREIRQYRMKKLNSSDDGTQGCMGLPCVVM

[2] = target: GDP-bound HRAS wild-type protein (Homo sapiens, UniProt P01112); experiment: Binding to HRAS by surface plasmon resonance (SPR), Single Cycle Kinetics; settings: SPR; for HRAS/KRAS (ratio of KD value for HRAS to KD value for KRAS) / HRAS/KRAS (ratio of KD value with respect to HRAS to KD value with respect to KRAS): GDP-bound HRAS wild-type vs GDP-bound KRAS wild-type
Sequence of GDP-bound HRAS wild-type protein (P01112 whole entry): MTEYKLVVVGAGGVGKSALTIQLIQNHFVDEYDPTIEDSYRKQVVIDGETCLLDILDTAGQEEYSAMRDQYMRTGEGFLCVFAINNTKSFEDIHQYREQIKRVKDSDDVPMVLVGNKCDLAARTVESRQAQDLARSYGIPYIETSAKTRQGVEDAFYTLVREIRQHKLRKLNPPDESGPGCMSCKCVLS

| SMILES | NRAS/KRAS (ratio of KD value with respect to NRAS to KD value with respect to KRAS) [1] | HRAS/KRAS (ratio of KD value with respect to HRAS to KD value with respect to KRAS) [2] | also measured |
| --- | --- | --- | --- |
| CC[C@H](C)[C@@H]1NC(=O)[C@H](CC)N(C)C(=O)C[C@@H](C(=O)N(CC)CC)N(C)C(=O)[C@H](C2CCCC2)N(C)C(=O)C2(CC(C)(C)C2)NC(=O)[C@@H]2C[C@@H](C)CN2C(=O)[C@H](CCc2ccc(C(F)(F)F)c(OC)c2)NC(=O)CN(C)C(=O)[C@H](Cc2ccc(C)cc2)N2CC/C=C\C[C@@H](C2=O)N(C)C(=O)CN(C)C1=O [PP1841] | – | – | NRAS/KRAS (ratio of KD value for NRAS to KD value for KRAS) [1]: AA (a compound having 20 or more is denoted as AA); HRAS/KRAS (ratio of KD value for HRAS to KD value for KRAS) [2]: A (a compound having 10 or more and less than 20 is denoted as A) |
| CCC[C@H]1C(=O)N[C@@H](C2CCCC2)C(=O)N(C)CC(=O)N(C)[C@H]2C/C=C\CCN(C2=O)[C@@H](Cc2ccc(C)cc2)C(=O)N(C)CC(=O)N[C@@H](CCc2ccc(C(F)(F)F)c(Cl)c2)C(=O)N2C[C@H](OCC)C[C@H]2C(=O)NC2(CC(C)(C)C2)C(=O)N(C)[C@@H](CC(C)(C)C)C(=O)N(C)[C@H](C(=O)N(C)C)CC(=O)N1C [PP2196] | A (a compound having 10 or more and less than 20 is denoted as A) | B (a compound having 3 or more and less than 10 is denoted as B) | – |
| CCC[C@H]1C(=O)N[C@@H](CC(C)C)C(=O)N(C2CC2)CC(=O)N(C)[C@H]2C/C=C\CCN(C2=O)[C@@H](Cc2ccc(C)cc2)C(=O)N(C)CC(=O)N[C@@H](CCc2cc(F)c(C(F)(F)F)c(F)c2)C(=O)N2C[C@H](OCC)C[C@H]2C(=O)NC2(CC(C)(C)C2)C(=O)N(C)[C@@H](C2CCCC2)C(=O)N(C)[C@H](C(=O)N(C)C)CC(=O)N1C [PP2508] | A (a compound having 10 or more and less than 20 is denoted as A) | B (a compound having 3 or more and less than 10 is denoted as B) | – |
| CC[C@H](C)[C@@H]1NC(=O)[C@H](CCOC)N(C)C(=O)C[C@@H](C(=O)N(C)CC)N(C)C(=O)[C@H](C2CCCC2)N(C)C(=O)C2(CC(C)(C)C2)NC(=O)[C@@H]2C[C@H](C)CN2C(=O)[C@H](CCc2ccc(C(F)(F)F)c(OC)c2)NC(=O)CN(C)C(=O)[C@H](Cc2ccc(C(F)(F)F)cc2)N2CC/C=C\C[C@@H](C2=O)N(C)C(=O)CN(C)C1=O [PP1999] | – | – | NRAS/KRAS (ratio of KD value for NRAS to KD value for KRAS) [1]: A (a compound having 10 or more and less than 20 is denoted as A); HRAS/KRAS (ratio of KD value for HRAS to KD value for KRAS) [2]: B (a compound having 3 or more and less than 10 is denoted as B) |
| CCO[C@@H]1C[C@H]2C(=O)NC3(CCC3)C(=O)N(C)[C@@H](C3CCCC3)C(=O)N(CCC3CCC3)[C@H](C(=O)N(C)C)CC(=O)N(C)[C@@H](CC)C(=O)N[C@@H]([C@@H](C)CC)C(=O)N(C)CC(=O)N(C)[C@H]3CCCCCN(C3=O)[C@@H](Cc3ccc(C(F)(F)F)cc3)C(=O)N(C)CC(=O)N[C@@H](CCc3cc(F)c(C(F)(F)F)c(F)c3)C(=O)N2C1 [PP0635] | – | – | NRAS/KRAS (ratio of KD value with respect to GDP-bound NRAS wild-type protein to KD value with respect to KRAS) [1]: B (a compound having 3 or more and less than 10 is denoted as B); HRAS/KRAS (ratio of KD value with respect to GDP-bound HRAS wild-type protein to KD value with respect to KRAS) [2]: B (a compound having 3 or more and less than 10 is denoted as B) |
| CCO[C@@H]1C[C@H]2C(=O)NC3(CC(C)(C)C3)C(=O)N(C)[C@@H](C3CCCC3)C(=O)N(C)[C@H](C(=O)N(C)C)CC(=O)N(C)[C@@H](CC(C)C)C(=O)N[C@@H]([C@@H](C)CC)C(=O)N(C3CC3)CC(=O)N(C)[C@H]3C/C=C\CCN(C3=O)[C@@H](Cc3ccc(C)cc3)C(=O)N(C)CC(=O)N[C@@H](CCc3cc(F)c(C(F)(F)F)c(F)c3)C(=O)N2C1 [PP2109] | A (a compound having 10 or more and less than 20 is denoted as A) | A (a compound having 10 or more and less than 20 is denoted as A) | – |
| CCC[C@H]1C(=O)N[C@@H]([C@@H](C)CC)C(=O)N(C)CC(=O)N(C)[C@H]2CCCCN(C2=O)[C@@H](Cc2ccc(C(F)(F)F)cc2)C(=O)N(C)CC(=O)N[C@@H](CCc2cc(F)c(C(F)(F)F)c(F)c2)C(=O)N2C[C@H](OCC)C[C@H]2C(=O)NC2(CCC2)C(=O)N(C)[C@@H](C2CCCC2)C(=O)N(C)[C@H](C(=O)N(C)C)CC(=O)N1C [PP0694] | – | – | NRAS/KRAS (ratio of KD value with respect to GDP-bound NRAS wild-type protein to KD value with respect to KRAS) [1]: C (A compound having a KD ratio of 0.1 or more and less than 3 is denoted as C); HRAS/KRAS (ratio of KD value with respect to GDP-bound HRAS wild-type protein to KD value with respect to KRAS) [2]: C (A compound having a KD ratio of 0.1 or more and less than 3 is denoted as C) |
| CCC[C@H]1C(=O)N[C@@H]([C@@H](C)CC)C(=O)N(C)CC(=O)N(C)[C@H]2C/C=C\CCN(C2=O)[C@@H](Cc2ccc(C(F)(F)F)cc2)C(=O)N(C)CC(=O)N[C@@H](CCc2ccc(C(F)(F)F)c(OC)c2)C(=O)N2C[C@H](OCC)C[C@H]2C(=O)N(C)C2(CCC2)C(=O)N(C)[C@@H](C2CCCC2)C(=O)N(C)[C@H](C(=O)N(C)C)CC(=O)N1C [PP2312] | A (a compound having 10 or more and less than 20 is denoted as A) | B (a compound having 3 or more and less than 10 is denoted as B) | – |
